Measurements taken from article PMC10889512, “Pyrimidine Schiff Bases: Synthesis, Structural Characterization and Recent Studies on Biological Activities” (International Journal of Molecular Sciences, 2024).
pIC50: −log10 of the molar value.

What was measured:
Type in all cases: cell-based, human
AGS cell line = assay: Comet assay (single-cell gel electrophoresis), AGS
Method: Single-cell gel electrophoresis was performed to assess the potential genotoxic effect on AGS and A172 after incubation with compound 4b at IC50. This method is based on the ability of damaged DNA to migrate out of the cell during electrophoresis. After DNA staining (Hoechst 33342), the characteristic “comet tail” could be observed under the fluorescence microscope. The damages in 100 randomly selected cells were visually classified into five groups according to the length of the “comet tail”. Group 0 consisted of cells without damaged DNA, while group 4 contained cells with maximally long tails. Based on this, a group damage index (DI) was calculated. The genotoxic effect was found in both examined cell lines. […]
The comet assay was performed according to the method of Singh et al. with slight modifications. […] A total of 100 randomly selected cells were scored, and captured comets were classified based on the comet’s tail length as follows: class 0 contained comets with no damaged DNA; class 1, those with low damage; class 2, those with medium damage; class 3, those with high damage; and class 4, those with very high damage. The damage index (DI) was calculated as follows: DI=0×n0+1×n1+2×n2+3×n3+4×n4, n0,1,2,3,4 —the amount of comets in each class.

A172 cell line = assay: Comet assay (single-cell gel electrophoresis), A172
Method: Single-cell gel electrophoresis was performed to assess the potential genotoxic effect on AGS and A172 after incubation with compound 4b at IC50. This method is based on the ability of damaged DNA to migrate out of the cell during electrophoresis. After DNA staining (Hoechst 33342), the characteristic “comet tail” could be observed under the fluorescence microscope. The damages in 100 randomly selected cells were visually classified into five groups according to the length of the “comet tail”. Group 0 consisted of cells without damaged DNA, while group 4 contained cells with maximally long tails. Based on this, a group damage index (DI) was calculated. The genotoxic effect was found in both examined cell lines. In the case of the A172 cell line, the DNA degradation level seemed to be independent of the incubation time with compound 4b (DNA damage index (DDI) between 77 and 85 over three incubation periods), whereas for AGS cells, genotoxicity was induced in a time-dependent manner (DDI 63, 107, and 111 after 24, 48, and 72 h, respectively).
The comet assay was performed according to the method of Singh et al. with slight modifications. Slides sterilized in 70% ethanol microscope were covered with thin layer of 1% normal melting agarose and left to solidify in a low-humidity environment. Cells were plated in 12-well plates at a density of 1 × 10^5 cells/well and incubated for 24 h in a cell incubator. Next, compound 4b was added in concentrations equal to the IC50 values obtained after the neutral red uptake assay. After 24, 48, and 72 h incubation, cells were harvested, centrifuged, and resuspended in PBS. […] A total of 100 randomly selected cells were scored, and captured comets were classified based on the comet’s tail length as follows: class 0 contained comets with no damaged DNA; class 1, those with low damage; class 2, those with medium damage; class 3, those with high damage; and class 4, those with very high damage. The damage index (DI) was calculated as follows: DI=0×n0+1×n1+2×n2+3×n3+4×n4, n0,1,2,3,4 —the amount of comets in each class.

AGS = assay: Neutral red uptake assay on AGS; settings: 72 h treatment
Method: Based on the results obtained for the RPTEC cell line, the following concentrations of 4b–d were chosen to be applied to neoplastic cell lines: 0.1, 1, 10, 25, 50, and 100 µM. A172, AGS, CaCo-2, HeLa, and HepG2 cancer cell lines were used to perform a neutral red uptake assay. The obtained results were compared with a negative control (cell lines incubated without tested compounds), and half-maximal inhibitory concentration (IC50) values were calculated. Cell lines were plated in 96-well plates at a density of 1 × 10^4 cells/well. After 24 h incubation, which allowed the cells to attach and start to proliferate, the culture media were replaced with 4a–d dissolved in the appropriate medium at concentrations of 1, 10, 50, 100, 150 and 200 µM. […] Negative (1% DMSO in medium) and positive (1 µM staurosporine) controls were also included. Plates were incubated at 37 °C for 24, 48, and 72 h before the neutral red uptake assay. The neutral red uptake assay was performed as described by Repetto et al.. Briefly, the medium from all wells was discarded, the attached cells were washed with 100 µL PBS, and then 100 µL of neutral red working solution in medium (40 µg/mL) was added to each well. The neutral red solution was incubated overnight in the same conditions as the cells and centrifuged before being added to the cells. The plates were incubated for at least 2 h at 37 °C, 5% CO2, in a humidified atmosphere. Next, the neutral red medium was removed, and the cells were washed with 100 µL PBS. A 100 µL quantity of destain solution consisting of 50% ethanol, 1% glacial acetic acid, and deionized water was added to each well. Plates were incubated for 30 min with constant shaking on a horizontal shaker at 37 °C. Absorption was measured at 540 nm excitation. The cells’ viability was calculated by comparing results from experimental sets with negative controls according to the formula: % viability=ODtest substance−ODblind/ODnegative control−ODblind×100

AGS cells = assay: Flow cytometry FDA/PI staining, cell viability, AGS
Method: A detailed analysis of potential cytotoxic mechanisms has been performed only for the selected compound (4b) where the IC50 values under 100 µM were detected in the screening NR assay. Flow cytometry was performed on the A172 and AGS cell lines. Cells were incubated with compound 4b at IC50 for 24, 48, and 72 h before analysis. Fluorescein diacetate (FDA) and propidium iodide (PI) were used as indicators for viable and nonviable (necrotic) cells. Most of the events were captured in the first and the fourth quadrant, which represent viable and necrotic cells, respectively. […] Similar results were obtained for the AGS cell line (Figure 8B), where the viability was 60.95%/55.10%/44.99% after the same incubation periods, respectively. Some events occurred in the second quadrant, but it was difficult to unequivocally categorize them into viable or nonviable (apoptotic/necrotic) cell populations, and thus more sensitive dyes, able to distinguish between the types of cell death, were needed.
Two approaches for flow cytometry were used—FDA/PI staining to determine cell viability and annexin V/PI staining for cell death pathway determination.
For cell viability determination, cells were plated in 6-well plates at a density of 1 × 10^5 cells/well and incubated for 24 h at 37 °C, 5% CO2 and in a humidified atmosphere. Next, cells were treated with 4b at a concentration calculated as IC50 in neutral red uptake assay. After 24, 48, and 72 h incubation, the cells (either adhered or floating) were collected, centrifuged at 1600 rpm, and washed with PBS. FDA and PI stock solution at a 1 mM concentration were prepared in DMSO and H2O, respectively. After centrifugation and supernatant discarding, cells were stained with FDA at a final concentration of 1 µM prepared in PBS and incubated in the dark. After 15 min, they were centrifuged at 1600 rpm, resuspended in ice-cold PBS, and placed on ice. Samples were stained with 1 µM PI for 2 min before the cytometry evaluation. […]

pIC50 (AGS): 4.49 | pIC50 (AGS; Homo sapiens, 72 h): 4.49
Compound: Cc1nc(-c2ccccc2)nc(Nc2ccc(F)cc2)c1C=Nc1cccc(Cl)c1 [compound 4b, 5-{[(3-chlorophenyl)imino]methyl}-N-(4-fluorophenyl)-6-methyl-2-phenylpyrimidin-4-amine]
DNA damage index (AGS cell line; at IC50, 24 h): 63 arbitrary units | DNA damage index (AGS cell line; at IC50, 48 h): 107 arbitrary units | DNA damage index (A172 cell line; A172, at IC50, 24 h): 77 arbitrary units | DNA damage index (A172 cell line; A172, at IC50, 48 h): 85 arbitrary units | DNA damage index (A172 cell line; A172, at IC50, 72 h): 78 arbitrary units | Q1 events (viable cells; viability), FDA/PI (AGS cells; at IC50, 24 h): 60.95% | Q1 events (viable cells; viability), FDA/PI (AGS cells; at IC50, 48 h): 55.10% | Q1 events (viable cells; viability), FDA/PI (AGS cells; at IC50, 72 h): 44.99%
